Here are results for 15 compounds from ChEMBL document CHEMBL1765070, “Structure-based design of potent and selective 3-phosphoinositide-dependent kinase-1 (PDK1) inhibitors” (J Med Chem, 2011).

Test [1] addresses T1, TGF-beta receptor type-1 (Homo sapiens, UniProt P36897).
T1 sequence (P36897 whole entry): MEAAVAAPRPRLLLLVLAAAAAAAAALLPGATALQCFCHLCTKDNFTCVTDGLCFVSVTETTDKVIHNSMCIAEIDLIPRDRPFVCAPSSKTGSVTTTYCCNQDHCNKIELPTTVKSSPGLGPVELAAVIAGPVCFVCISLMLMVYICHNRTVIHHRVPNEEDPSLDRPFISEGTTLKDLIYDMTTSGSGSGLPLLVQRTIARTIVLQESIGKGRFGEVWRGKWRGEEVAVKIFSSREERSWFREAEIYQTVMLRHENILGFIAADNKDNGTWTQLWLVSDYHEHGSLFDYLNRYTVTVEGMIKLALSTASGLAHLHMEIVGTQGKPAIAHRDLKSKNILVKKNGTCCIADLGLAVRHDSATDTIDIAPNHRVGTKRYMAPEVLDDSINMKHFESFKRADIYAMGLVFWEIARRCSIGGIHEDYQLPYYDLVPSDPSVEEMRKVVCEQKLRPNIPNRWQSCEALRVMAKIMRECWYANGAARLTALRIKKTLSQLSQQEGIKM
Description: Inhibition of ALK5. As to conditions: read-out: pIC50 (converted).

Test [2] has as its target Aurora kinase B (Homo sapiens, UniProt Q96GD4). Put plainly: Inhibition of aurora B.
For test [3], the target named is T2, Aurora kinase A (Homo sapiens, UniProt O14965).
T2 sequence (O14965 whole entry): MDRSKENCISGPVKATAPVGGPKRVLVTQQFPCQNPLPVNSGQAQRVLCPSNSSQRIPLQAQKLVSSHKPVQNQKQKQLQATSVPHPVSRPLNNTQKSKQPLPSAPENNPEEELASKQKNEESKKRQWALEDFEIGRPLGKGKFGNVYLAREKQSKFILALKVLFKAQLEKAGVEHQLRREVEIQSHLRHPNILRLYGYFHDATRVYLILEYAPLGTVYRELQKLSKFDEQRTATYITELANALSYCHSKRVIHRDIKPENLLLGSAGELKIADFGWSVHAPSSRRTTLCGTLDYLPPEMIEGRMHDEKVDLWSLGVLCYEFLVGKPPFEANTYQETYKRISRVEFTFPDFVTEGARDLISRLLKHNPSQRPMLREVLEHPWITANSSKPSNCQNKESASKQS
Put plainly: Inhibition of aurora A.

In test [4] the target is T3, 3-phosphoinositide-dependent protein kinase 1 (Homo sapiens, UniProt O15530).
T3 sequence (O15530 whole entry): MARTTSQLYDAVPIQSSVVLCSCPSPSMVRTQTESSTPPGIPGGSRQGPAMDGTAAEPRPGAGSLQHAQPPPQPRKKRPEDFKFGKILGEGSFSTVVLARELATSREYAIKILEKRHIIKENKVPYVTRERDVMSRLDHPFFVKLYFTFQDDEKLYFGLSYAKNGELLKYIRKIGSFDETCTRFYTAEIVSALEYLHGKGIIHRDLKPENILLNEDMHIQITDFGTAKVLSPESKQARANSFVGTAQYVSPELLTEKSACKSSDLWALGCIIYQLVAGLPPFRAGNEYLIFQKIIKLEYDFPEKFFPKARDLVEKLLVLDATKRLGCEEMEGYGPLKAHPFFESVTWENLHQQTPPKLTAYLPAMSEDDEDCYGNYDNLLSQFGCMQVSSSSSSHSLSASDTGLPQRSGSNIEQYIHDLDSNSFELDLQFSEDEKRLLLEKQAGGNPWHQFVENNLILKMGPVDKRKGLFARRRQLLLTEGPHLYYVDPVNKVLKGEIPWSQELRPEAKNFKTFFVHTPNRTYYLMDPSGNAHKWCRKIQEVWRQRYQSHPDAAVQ
Description: Inhibition of PDK1.

For test [5], the target named is T3, 3-phosphoinositide-dependent protein kinase 1. Put plainly: Inhibition of PDK1-mediated RSK phosphorylation at Ser221 residue in human PC3 cells by ELISA. In kind it is cell-based, PC-3.
For test [6], the target named is Rho-associated protein kinase 1 (Homo sapiens, UniProt Q13464). Put plainly: Inhibition of ROCK1.
Test [7] addresses T3, 3-phosphoinositide-dependent protein kinase 1. Put plainly: Inhibition of PDK1-mediated AKT phosphorylation at Thr308 residue in human PC3 cells by ELISA. In kind it is cell-based, PC-3.
Test [8] deals with HEL. Description: Antiproliferative activity against human HEL 92.1.7 cells. The class given is functional, cell-based.
Test [9] in a line: Antiproliferative activity against human F-36P cells. The class given is functional, cell-based.
Test [10] has as its system K562. Description: Antiproliferative activity against human K562 cells. The class given is functional, cell-based.
The nature of test [11]: Antiproliferative activity against human OCI-AML3 cells. In kind it is functional, cell-based. To be noted: OCI-AML-3.
The test system of test [12] is OCI-AML2. Description: Antiproliferative activity against human OCI-AML2 cells. In kind it is functional, cell-based.

Where only a bound is given, the exact number is not on record here.

Sequence of Aurora kinase B (Q96GD4 whole entry): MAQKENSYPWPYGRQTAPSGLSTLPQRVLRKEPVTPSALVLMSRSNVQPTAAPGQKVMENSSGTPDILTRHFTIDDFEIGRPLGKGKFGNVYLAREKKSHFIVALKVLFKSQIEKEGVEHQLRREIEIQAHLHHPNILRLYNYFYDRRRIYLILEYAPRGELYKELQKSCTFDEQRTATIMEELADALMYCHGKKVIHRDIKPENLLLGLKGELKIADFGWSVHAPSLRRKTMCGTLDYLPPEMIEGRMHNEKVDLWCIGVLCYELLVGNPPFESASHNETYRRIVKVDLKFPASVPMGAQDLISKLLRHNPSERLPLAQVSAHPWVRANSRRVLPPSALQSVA
Sequence of Rho-associated protein kinase 1 (Q13464 whole entry): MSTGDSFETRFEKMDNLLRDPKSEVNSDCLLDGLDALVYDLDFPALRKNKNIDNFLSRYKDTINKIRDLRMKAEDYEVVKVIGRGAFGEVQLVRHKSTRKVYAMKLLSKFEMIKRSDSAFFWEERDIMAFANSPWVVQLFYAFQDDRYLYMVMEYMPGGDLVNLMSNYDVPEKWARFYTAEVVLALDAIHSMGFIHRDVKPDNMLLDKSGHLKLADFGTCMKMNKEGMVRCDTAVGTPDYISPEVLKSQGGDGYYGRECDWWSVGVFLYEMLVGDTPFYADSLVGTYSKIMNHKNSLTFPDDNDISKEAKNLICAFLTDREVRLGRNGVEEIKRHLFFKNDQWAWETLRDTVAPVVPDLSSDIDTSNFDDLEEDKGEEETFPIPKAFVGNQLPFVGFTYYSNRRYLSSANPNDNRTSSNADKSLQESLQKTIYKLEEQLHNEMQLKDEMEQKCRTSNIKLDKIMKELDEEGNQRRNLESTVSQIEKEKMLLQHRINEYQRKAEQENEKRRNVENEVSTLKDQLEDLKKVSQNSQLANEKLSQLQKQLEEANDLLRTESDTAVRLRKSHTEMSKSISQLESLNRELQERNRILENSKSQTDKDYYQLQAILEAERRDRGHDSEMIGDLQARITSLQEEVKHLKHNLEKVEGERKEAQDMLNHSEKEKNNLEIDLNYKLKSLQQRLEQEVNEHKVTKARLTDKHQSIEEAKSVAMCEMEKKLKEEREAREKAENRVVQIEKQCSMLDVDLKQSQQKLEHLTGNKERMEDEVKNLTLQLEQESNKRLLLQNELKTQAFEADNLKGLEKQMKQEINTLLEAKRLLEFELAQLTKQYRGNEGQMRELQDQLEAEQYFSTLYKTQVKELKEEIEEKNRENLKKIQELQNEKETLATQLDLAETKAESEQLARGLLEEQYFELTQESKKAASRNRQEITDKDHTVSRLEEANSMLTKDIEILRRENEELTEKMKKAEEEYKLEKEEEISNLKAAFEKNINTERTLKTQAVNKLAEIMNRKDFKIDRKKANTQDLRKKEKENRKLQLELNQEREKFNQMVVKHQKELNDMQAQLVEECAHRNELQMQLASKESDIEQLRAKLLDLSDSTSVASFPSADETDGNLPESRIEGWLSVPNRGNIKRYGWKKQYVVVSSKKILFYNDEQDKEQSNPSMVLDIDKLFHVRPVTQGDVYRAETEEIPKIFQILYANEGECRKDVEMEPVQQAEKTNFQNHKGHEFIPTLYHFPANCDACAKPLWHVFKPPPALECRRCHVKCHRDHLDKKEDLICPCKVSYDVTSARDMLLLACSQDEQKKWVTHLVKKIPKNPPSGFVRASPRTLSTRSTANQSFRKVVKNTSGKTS

On to `C[C@@H]1C[C@@H](N(C)C(=O)CC(C)(C)C)CN(c2cc(-c3ccc4c(N)n[nH]c4c3)nc(N)n2)C1`, for which the IC50 was more than 10000 nM in [1]; 200 nM in [2]; 63.1 nM in test [3]; 0.631 nM in test [4]; 116 nM in [5]; more than 10000 nM in test [6]. The compound also came in with an IC50 in [7] of 22 nM.
As for `CNc1nc(-c2ccc3c(N)n[nH]c3c2)cc(N2C[C@@H](C(=O)Nc3ccccc3)CC[C@H]2C)n1`, the IC50 in test [1] was more than 10000 nM; in [2], 2000 nM; in [8], 12000 nM; in test [3], more than 10000 nM; in test [4], 1.58 nM; in test [5] it was 655 nM. Besides, the IC50 in [9] is 460 nM; in [10], 8000 nM; in test [6], 3160 nM; in [11], 650 nM; in [12] it was 580 nM; in [7], 165 nM.
Turning to `C[C@@H]1C[C@@H](NC(=O)OC(C)(C)C)CN(c2cc(-c3ccc4c(N)[nH]nc4c3)nc(N)n2)C1`, the IC50 is more than 10000 nM in [1]; 1580 nM in test [2]; 18000 nM in test [8]; 398 nM in [3]; 820 nM in test [9]; 24000 nM in test [10]. Besides, the IC50 in test [6] was more than 10000 nM; in test [11], 400 nM; in test [12], 690 nM.
As for `CC[C@@H]1CO[C@H](C(=O)Nc2ccccc2)CN1c1cc(-c2ccc3c(N)n[nH]c3c2)nc(NC)n1`, the IC50 was more than 10000 nM in test [1]; 1580 nM in [2]; 7940 nM in test [3]; 3.16 nM in [4]; 88 nM in [5]; 3160 nM in test [6]. Also, in [7], the IC50 was found to be 57 nM.
On to `CNc1nc(-c2ccc3c(N)n[nH]c3c2)cc(N2C[C@@H](C(=O)NC3CCCCC3)OC[C@H]2C)n1`, for which the IC50 was more than 10000 nM in test [1]; 5010 nM in test [2]; 19000 nM in test [8]; more than 10000 nM in test [3]; 3.16 nM in test [4]; 30 nM in test [5]. The IC50 is 390 nM in test [9]; more than 30000 nM in [10]; more than 10000 nM in test [6]; 690 nM in test [11]; 460 nM in [12]; 24 nM in test [7].
For `CC[C@@H]1CO[C@H](C(=O)NC2CCCCC2)CN1c1cc(-c2ccc3c(N)n[nH]c3c2)nc(NC)n1`, the IC50 is more than 10000 nM in test [1]; 1580 nM in test [2]; 16000 nM in test [8]; more than 10000 nM in test [3]; 6.31 nM in [4]; 102 nM in test [5]. Moreover, the IC50 was 460 nM in [9]; more than 30000 nM in [10]; more than 10000 nM in test [6]; 760 nM in [11]; 890 nM in test [12]; 85 nM in test [7].
Turning to `C[C@@H]1C[C@@H](N(C)C(=O)OC(C)(C)C)CN(c2cc(-c3ccc4c(N)n[nH]c4c3)nc(N)n2)C1`, the IC50 in test [1] was more than 10000 nM; in test [2] it was 251 nM; in [8], 18000 nM; in test [3], 126 nM; in [4], 0.794 nM; in [5], 19 nM. The IC50 in test [9] is 190 nM; in [10] it was 17000 nM; in [6], more than 10000 nM; in [11], 240 nM; in test [12] it was 380 nM; in test [7], 9 nM.
On to `C[C@@H]1CCCCN1c1cc(-c2ccc3c(N)n[nH]c3c2)nc(N)n1`, for which the IC50 in test [1] is 7940 nM; in [2], 25100 nM; in [3], more than 10000 nM; in [4], 126 nM; in test [6], more than 10000 nM.
Regarding `CC(C)(C)OC(=O)NC1CCCN(c2cc(-c3ccc4c(N)n[nH]c4c3)nc(N)n2)C1` (racemic), the IC50 is more than 10000 nM in test [1]; 398 nM in test [2]; 1260 nM in [3]; 50.1 nM in [4]; more than 10000 nM in test [6].
On to `CC(C)(C)OC(=O)N[C@H]1CCCN(c2cc(-c3ccc4c(N)n[nH]c4c3)nc(N)n2)C1`, for which the IC50 is more than 10000 nM in test [1]; 316 nM in [2]; 6310 nM in [3]; 1000 nM in test [4]; more than 10000 nM in test [6].
`CC(C)Nc1cc(-c2ccc3c(N)n[nH]c3c2)nc(N)n1`: the IC50 is 501 nM in test [1]; 15800 nM in test [2]; 2000 nM in test [3]; 126 nM in [4]; more than 10000 nM in [6].
For `CC(C)[C@@H]1COCCN1c1cc(-c2ccc3c(N)n[nH]c3c2)nc(N)n1` the same measures were more than 10000 nM, 7940 nM, 12600 nM, 200 nM and 15800 nM.
In the case of `C[C@@H]1CC[C@H](C(=O)NC2CCCCC2)CN1c1cc(-c2ccc3c(N)n[nH]c3c2)nc(N)n1`, the IC50 in test [1] was more than 10000 nM; in [2] it was 1000 nM; in [3], 5010 nM; in test [4], 7.94 nM; in test [5], 316 nM; in test [6], 631 nM. Besides, the IC50 in [7] came out at 472 nM.
For `Nc1nc(-c2ccc3c(N)n[nH]c3c2)cc(N2CCC[C@H](C(=O)Nc3ccccc3)C2)n1`, the IC50 in test [1] was more than 10000 nM; in [2], 1260 nM; in test [3] it was 7940 nM; in test [4], 31.6 nM; in test [6], 2000 nM.
The like results for `CC(C)(C)OC(=O)N[C@@H]1CCCN(c2cc(-c3ccc4c(N)n[nH]c4c3)nc(N)n2)C1` were, in that order, more than 10000 nM, 5010 nM, 1580 nM, 25.1 nM and more than 10000 nM.
